This passage reports inhibition results from paper PMC12983307 (Journal of the American Chemical Society, 2026).

Bridge positions count the residues as written; N and C are the ends. Peptide text beside a SMILES is read from it.

The test deals with AgrC (Staphylococcus aureus, UniProt O07911). Nature of the test: fluorescence polarization displacement of TAMRA-AIP-III D4A from AgrC nanodiscs. The class given is binding. Particulars: read-out: % reduction in polarization at 10 μM. For orientation: In fluorescence polarisation assays a small probe gives low polarisation when free and higher when bound to something large.
Chain of AgrC (O07911 entry or part of it): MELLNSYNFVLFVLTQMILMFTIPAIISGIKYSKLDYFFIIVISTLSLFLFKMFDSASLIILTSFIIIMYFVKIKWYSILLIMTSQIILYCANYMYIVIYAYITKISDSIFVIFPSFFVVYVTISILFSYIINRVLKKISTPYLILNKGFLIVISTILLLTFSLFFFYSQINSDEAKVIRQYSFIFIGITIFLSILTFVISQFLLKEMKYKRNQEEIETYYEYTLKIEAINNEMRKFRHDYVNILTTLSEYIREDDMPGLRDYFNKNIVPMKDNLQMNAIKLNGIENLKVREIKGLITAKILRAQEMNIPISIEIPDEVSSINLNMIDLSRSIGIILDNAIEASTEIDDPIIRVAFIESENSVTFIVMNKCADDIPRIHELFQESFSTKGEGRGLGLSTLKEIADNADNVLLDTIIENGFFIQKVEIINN

For `CC[C@H](C)[C@@H]1NC(=O)[C@H](Cc2ccccc2)NC(=O)[C@H](CC(=O)O)NC(=O)[C@@H](NC(=O)[C@@H](NC(=O)[C@H](CO)NC(=O)[C@@H](N)Cc2ccc(O)cc2)[C@@H](C)O)CSC(=O)[C@H](CCSC)NC1=O` [AIP-I] (H-YSTCDFIM; thioester 4-C), the inhibition at 10 µM stood at 62%.
